Data from ChEMBL document CHEMBL1201862, “PubChem BioAssay data set” (2004).
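How tested: cells in 96-well plates exposed to compound for 48 hours at five concentrations. The concentration for 50% growth inhibition is given as GI50.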 Active and inactive are the calls of the source. Rule as the data show it: active = GI50 up to about 1.1 µM and inactive = higher.

What was measured:
Assay in all cases: NCI-60 cell line screen, 48 h
[1] = system: 786-0
[2] = system: A498
[3] = system: A549
[4] = system: ACHN
[5] = system: BT-549
[6] = system: CAKI-1
[7] = system: CCRF-CEM
[8] = system: COLO 205
[9] = system: DLD-1
[10] = system: DMS-114
[11] = system: DMS-273
[12] = system: DU-145
[13] = system: EKVX
[14] = system: HCC 2998
[15] = system: HCT-116
[16] = system: HCT-15
[17] = system: HL-60
[18] = system: HOP-18
[19] = system: HOP-62
[20] = system: HOP-92
[21] = system: HT-29
[22] = system: Hs-578T
[23] = system: IGROV-1
[24] = system: K562
[25] = system: KM-20L2
[26] = system: KM12
[27] = system: LOX IMVI
[28] = system: LXFL 529
[29] = system: M14
[30] = system: M19-MEL
[31] = system: MCF7
[32] = system: MDA-MB-231
[33] = system: MDA-MB-435
[34] = system: MDA-N
[35] = system: MOLT-4
[36] = system: Malme-3M
[37] = system: NCI-H226
[38] = system: NCI-H23
[39] = system: NCI-H460
[40] = system: NCI-H522
[41] = system: NCI/ADR-RES
[42] = system: OVCAR-3
[43] = system: OVCAR-4
[44] = system: OVCAR-5
[45] = system: OVCAR-8
[46] = system: PC-3
[47] = system: RPMI-8226
[48] = system: RXF 393
[49] = system: SF-268
[50] = system: SF-295
[51] = system: SF-539
[52] = system: SK-MEL-28
[53] = system: SK-MEL-2
[54] = system: SK-MEL-5
[55] = system: SK-OV-3
[56] = system: SN12C
[57] = system: SNB-19
[58] = system: SNB-75
[59] = system: SNB-78
[60] = system: SR
[61] = system: SW-620
[62] = system: T47D
[63] = system: TK-10
[64] = system: U-251
[65] = system: UACC-257
[66] = system: UACC-62
[67] = system: UO-31
[68] = system: XF498
[69] = system: RXF 631

Measured: GI50

COC(=O)[C@]12CC=C3O[C@@H]4OC5(CCCCC5)O[C@@H]4[C@H]3C1C(=O)C=CC2=O (stereo not given in full)
15.6 µM: [16]
inactive: [1] 17 µM | [2] 17.9 µM | [3] 32.1 µM | [4] 18.5 µM | [5] 19.2 µM | [6] 15.9 µM | [7] 4.13 µM | [8] 15.7 µM | [9] 15.5 µM | [10] 17.5 µM | [11] 18.1 µM | [12] 21 µM | [13] 33.2 µM | [14] 17.2 µM | [15] 17.5 µM | [17] 8.91 µM | [18] 18.5 µM | [19] 21 µM | [20] 18.7 µM | [21] 17.9 µM | [22] 26.1 µM | [23] 18.4 µM | [24] 14.6 µM | [25] 19.7 µM | [26] 10.9 µM | [27] 16.8 µM | [28] 9.84 µM | [29] 17.4 µM | [30] 16 µM | [31] 16 µM | [32] 16.8 µM | [33] > 10 µM | [34] 19.1 µM | [35] 7.03 µM | [36] 17.9 µM | [37] 18.6 µM | [38] 17.1 µM | [39] 22.3 µM | [40] 5.53 µM | [41] 18.1 µM | [42] 8.81 µM | [43] 17.1 µM | [44] 20.5 µM | [45] 20.2 µM | [46] 24.9 µM | [47] 7.64 µM | [48] 8.73 µM | [49] 3.97 µM | [50] 24.6 µM | [51] 19.6 µM | [52] 18.9 µM | [53] 22.2 µM | [54] 18.6 µM | [55] 30.7 µM | [56] 18.4 µM | [57] 38.3 µM | [58] 18.8 µM | [59] 18.8 µM | [60] 22.3 µM | [61] 15.9 µM | [62] 17.1 µM | [63] 17.1 µM | [64] 18.7 µM | [65] 16.3 µM | [66] 16 µM | [67] 17 µM | [68] 12.6 µM

Cc1ccc(S(=O)(=O)N/N=c2\c(C)c(C3=NS(=O)(=O)c4cc(S(N)(=O)=O)c(Cl)cc4N3)oc3c(Cl)cc(Cl)cc23)cc1
39.4 µM: [16]
inactive: [1] > 100 µM | [2] > 100 µM | [3] > 100 µM | [4] > 100 µM | [6] > 100 µM | [7] 32.2 µM | [8] 22.3 µM | [9] > 100 µM | [10] 26.9 µM | [11] 27 µM | [13] > 100 µM | [14] > 100 µM | [15] 65.5 µM | [17] > 100 µM | [18] 45.3 µM | [19] > 100 µM | [20] 27.7 µM | [21] 49.9 µM | [23] > 100 µM | [24] 61.1 µM | [25] > 100 µM | [26] > 100 µM | [27] 86.5 µM | [28] > 100 µM | [29] > 100 µM | [30] > 100 µM | [35] > 100 µM | [36] > 100 µM | [37] > 100 µM | [38] > 100 µM | [39] 60.7 µM | [42] > 100 µM | [43] > 100 µM | [44] > 100 µM | [45] > 100 µM | [47] 36.9 µM | [48] 59.7 µM | [69] 79.1 µM | [49] > 100 µM | [50] > 100 µM | [51] > 100 µM | [52] > 100 µM | [53] > 100 µM | [54] > 100 µM | [55] > 100 µM | [56] > 100 µM | [57] > 100 µM | [58] > 100 µM | [59] > 100 µM | [60] > 100 µM | [61] 6.87 µM | [63] > 100 µM | [64] 23.5 µM | [65] > 100 µM | [66] > 100 µM | [67] > 100 µM
